# Test results reported in ChEMBL document CHEMBL5346900, “Treatment of allergy: Overview of synthetic anti-allergy small molecules in medicinal chemistry” (Eur J Med Chem, 2023).
# Test system: not listed separately
# Assay: Half life in Sprague-Dawley rat at 3 mg/kg, iv measured by LC/MS analysis
# Type: ADME, organism-based
# Conditions: in vivo
row,half-life [min],SMILES
1,48,CN1CCN(C(=O)c2cc3cc(Cl)ccc3[nH]2)CC1 [JNJ-7777120]

# Target: Histamine H4 receptor (Homo sapiens, UniProt Q9H3N8)
# Assay: Binding affinity to histamine H4 receptor (unknown origin) assessed as inhibition constant
# Conditions: not given
row,Ki [nM],SMILES
1,27,CN1CCN(C(=O)c2nc3cc(Cl)ccc3[nH]2)CC1
2,4.8,CN1CCN(c2cc(-c3ccc(Cl)cc3)nc(N)n2)CC1
3,4.9,O=C(c1cc2ccccc2[nH]1)N1CCNCC1
4,8.4,Cc1cc(C)c2nc(-c3cnc(NCCCC4CCN(C)CC4)nc3C)[nH]c2c1 [TOREFORANT]

# Target: T1, Cysteinyl leukotriene receptor 1 (Cavia porcellus, UniProt Q2NNR5)
# T1 sequence (Q2NNR5 whole entry): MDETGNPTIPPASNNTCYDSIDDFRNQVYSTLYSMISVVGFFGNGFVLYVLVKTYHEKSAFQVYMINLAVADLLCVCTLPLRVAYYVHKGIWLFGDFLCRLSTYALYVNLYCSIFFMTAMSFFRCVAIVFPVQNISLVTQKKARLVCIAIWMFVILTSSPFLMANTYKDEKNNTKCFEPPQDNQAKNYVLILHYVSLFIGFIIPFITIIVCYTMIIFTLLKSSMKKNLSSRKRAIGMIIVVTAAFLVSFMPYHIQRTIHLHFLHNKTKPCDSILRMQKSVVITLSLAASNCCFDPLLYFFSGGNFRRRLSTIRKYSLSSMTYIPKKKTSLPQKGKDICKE
# Assay: Inhibition of guinea pig leukotriene D4
# Conditions: not given
row,IC50 [nM],SMILES
1,229,Cn1nccc1-c1ccc(Sc2ccc(C3(C(N)=O)CCOCC3)cc2)cc1
2,300,COC1(c2cc(F)cc(OCc3ccc4c(ccc(=O)n4C)c3)c2)CCOCC1 [ZD-2138]

# Target: T2, Leukotriene C4 synthase (Homo sapiens, UniProt Q16873)
# T2 sequence (Q16873 whole entry): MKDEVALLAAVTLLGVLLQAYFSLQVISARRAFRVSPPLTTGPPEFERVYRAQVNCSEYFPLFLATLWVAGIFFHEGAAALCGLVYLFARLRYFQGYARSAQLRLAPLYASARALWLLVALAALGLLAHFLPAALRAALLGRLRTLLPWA
# Assay: Inhibition of LTC4 (unknown origin)
# Conditions: not given
row,IC50 [nM],SMILES
1,5000,S=C(NCCc1c[nH]c2ccccc12)Nc1ccc(Cl)cn1
2,1600,Cc1cccc(NC(=S)NC(C)c2cccc3ccccc23)n1 (configuration not stated)
3,5000,Oc1ccc(CCNC(=S)Nc2ccc(Br)cn2)cc1
4,5,Cc1ccc(NC(=S)NC(C)c2cccc3ccccc23)nc1 (configuration not stated)
5,2,CCOC(=O)Cc1csc(NC(=S)NC(C)c2cccc3ccccc23)n1 (configuration not stated)
